Test results reported in PubChem BioAssay AID200 (DTP/NCI, 2004).
Values joined by “and” are separate entries in the source; they are usually repeats but may differ in a detail not shown here. Equal entries are not always repeated. Toxic doses and inconclusive results are not listed. Where a SMILES comes first, the peptide text is derived from it. [ ]: non-standard residue; d: D form. The star is where a group is joined. Cbz = O=C(OCc1ccccc1)*; Nva = CCC[CH](N)C(=O)O

Test system: B6C3F1 mice, B16 melanoma ip, median survival T/C
Assay: NCI In Vivo Anticancer Drug Screen. Data for tumor model B16 Melanoma (intraperitoneal) in B6C3F1 mice
Conditions: endpoint: median survival time, higher = longer survival
Description: The antitumor activity of compounds was measured in mice bearing transplantable tumors. Survival or tumor size were measured and the results are expressed as the measurement made in the treated group (T) divided by the measurement made in the vehicle treated control group (C). The tumor model used in this assay is B16 Melanoma (intraperitoneal) in B6C3F1 mice

[1] = dose: 6.25 mg/kg/injection, schedule: Q01DX009 (ip), vehicle: saline with Tween-80
[2] = dose: 12.5 mg/kg/injection, schedule: Q01DX009 (ip), vehicle: saline with Tween-80
[3] = dose: 100.0 mg/kg/injection, schedule: Q01DX009 (ip), vehicle: Klucel (hydroxypropylcellulose) (HPC)
[4] = dose: 50.0 mg/kg/injection, schedule: Q01DX009 (ip), vehicle: saline
[5] = dose: 100.0 mg/kg/injection, schedule: Q01DX009 (ip), vehicle: saline
[6] = dose: 6.25 mg/kg/injection, schedule: Q01DX009 (ip), vehicle: Klucel (hydroxypropylcellulose) (HPC)
[7] = dose: 12.5 mg/kg/injection, schedule: Q01DX009 (ip), vehicle: Klucel (hydroxypropylcellulose) (HPC)
[8] = dose: 25.0 mg/kg/injection, schedule: Q01DX009 (ip), vehicle: Klucel (hydroxypropylcellulose) (HPC)
[9] = dose: 50.0 mg/kg/injection, schedule: Q01DX009 (ip), vehicle: Klucel (hydroxypropylcellulose) (HPC)
[10] = dose: 25.0 mg/kg/injection, schedule: Q01DX009 (ip), vehicle: saline
[11] = dose: 50.0 mg/kg/injection, schedule: Q01DX009 (ip), vehicle: saline with Tween-80

COc1cc2c(c(OC)c1O)-c1ccc(OC)c(=O)cc1[C@@H](NC(=O)C(F)(F)F)CC2
T/C (dose: 0.62 mg/kg/injection, schedule: Q01DX009 (ip), vehicle: Klucel (hydroxypropylcellulose) (HPC)): 119 % of control | T/C (dose: 0.63 mg/kg/injection, schedule: Q01DX009 (ip), vehicle: Klucel (hydroxypropylcellulose) (HPC)): 122 % of control | T/C (dose: 1.25 mg/kg/injection, schedule: Q01DX009 (ip), vehicle: Klucel (hydroxypropylcellulose) (HPC)): 118 % of control | T/C (dose: 2.5 mg/kg/injection, schedule: Q01DX009 (ip), vehicle: Klucel (hydroxypropylcellulose) (HPC)): 120 % of control | T/C (dose: 4.17 mg/kg/injection, schedule: Q01DX009 (ip), vehicle: Klucel (hydroxypropylcellulose) (HPC)): 156 % of control

CC(C)CC(NC(=O)CF)C(=O)O (centres undefined)
T/C (dose: 0.31 mg/kg/injection, schedule: Q01DX009 (ip), vehicle: saline): 95 % of control | T/C (dose: 0.63 mg/kg/injection, schedule: Q01DX009 (ip), vehicle: saline): 93 % of control | T/C (dose: 1.25 mg/kg/injection, schedule: Q01DX009 (ip), vehicle: saline): 90 % of control | T/C (dose: 2.5 mg/kg/injection, schedule: Q01DX009 (ip), vehicle: saline): 89 % of control | T/C (dose: 5.0 mg/kg/injection, schedule: Q01DX009 (ip), vehicle: saline): 96 % of control | T/C (dose: 10.0 mg/kg/injection, schedule: Q01DX009 (ip), vehicle: saline): 100 % of control

Cn1cnc([N+](=O)[O-])c1Sc1nc(N)nc2c1ncn2C1OC(CO)C(O)C1O (centres undefined)
T/C (dose: 3.12 mg/kg/injection, schedule: Q01DX009 (ip), vehicle: suspension in saline): 116 % of control | T/C (dose: 3.13 mg/kg/injection, schedule: Q01DX009 (ip), vehicle: saline with Tween-80): 111 % of control | T/C [1]: 97 % of control | T/C (dose: 6.25 mg/kg/injection, schedule: Q01DX009 (ip), vehicle: suspension in saline): 117 % of control | T/C [2]: 94 % of control | T/C (dose: 12.5 mg/kg/injection, schedule: Q01DX009 (ip), vehicle: suspension in saline): 93 % of control

CCCC(NC(=O)OCc1ccccc1)C(=O)NC(C(=O)O)C(C)CC (centres undefined) (Cbz-[Nva]-Ile-OH; configuration not given here)
T/C [3]: 101 % of control | T/C (dose: 200.0 mg/kg/injection, schedule: Q01DX009 (ip), vehicle: Klucel (hydroxypropylcellulose) (HPC)): 109 % of control

CC(C)C(NC(=O)OC(C)(C)C)C(=O)O (centres undefined)
T/C [3]: 90 % of control

CCCCN(CCCC)CCNc1ccc(Cl)c2oc3cc(C)ccc3c(=O)c12
T/C [4]: 94 % of control | T/C [5]: 87 % of control

CCc1ccc(C2=C(O)C(=O)C(c3ccccc3)=C(O)C2=O)cc1
T/C (dose: 3.12 mg/kg/injection, schedule: Q01DX009 (ip), vehicle: Klucel (hydroxypropylcellulose) (HPC)): 112 % of control | T/C [6]: 106 % of control | T/C [7]: 108 % of control | T/C [8]: 114 % of control | T/C [9]: 114 % of control | T/C [3]: 108 % of control

CN(C)c1cccc(F)c1C(=O)NC(=O)Nc1ccc(Cl)cc1
T/C (dose: 37.5 mg/kg/injection, schedule: Q01DX009 (ip), vehicle: saline with Tween-80): 97 % of control | T/C (dose: 75.0 mg/kg/injection, schedule: Q01DX009 (ip), vehicle: saline with Tween-80): 111 % of control | T/C (dose: 150.0 mg/kg/injection, schedule: Q01DX009 (ip), vehicle: saline with Tween-80): 101 % of control

ClCCCN1CCN(CCCCl)CC1
T/C (dose: 6.25 mg/kg/injection, schedule: Q01DX009 (ip), vehicle: distilled water + alcohol): 109 % of control and 98 % of control | T/C (dose: 12.5 mg/kg/injection, schedule: Q01DX009 (ip), vehicle: distilled water + alcohol): 102 % of control and 104 % of control | T/C (dose: 25.0 mg/kg/injection, schedule: Q01DX009 (ip), vehicle: distilled water + alcohol): 108 % of control and 105 % of control | T/C (dose: 50.0 mg/kg/injection, schedule: Q01DX009 (ip), vehicle: distilled water + alcohol): 118 % of control and 107 % of control | T/C (dose: 100.0 mg/kg/injection, schedule: Q01DX009 (ip), vehicle: distilled water + alcohol): 115 % of control and 118 % of control

OC1CC2CCCCC2CC1c1ccccc1 (centres undefined)
T/C (dose: 25.0 mg/kg/injection, schedule: Q04DX003 (ip), vehicle: saline with Tween-80): 95 % of control | T/C (dose: 50.0 mg/kg/injection, schedule: Q04DX003 (ip), vehicle: saline with Tween-80): 114 % of control | T/C (dose: 100.0 mg/kg/injection, schedule: Q04DX003 (ip), vehicle: saline with Tween-80): 104 % of control | T/C (dose: 200.0 mg/kg/injection, schedule: Q04DX003 (ip), vehicle: saline with Tween-80): 93 % of control | T/C (dose: 400.0 mg/kg/injection, schedule: Q04DX003 (ip), vehicle: saline with Tween-80): 92 % of control

COc1cc2cc3cc4cc(OC)c(OC)cc4c(C)[n+]3cc2cc1OC (tested in a mixture with another compound)
T/C (dose: 12.5 mg/kg/injection, schedule: Q01DX009 (ip), vehicle: saline): 106 % of control | T/C [10]: 100 % of control | T/C [4]: 100 % of control | T/C [5]: 90 % of control

O=S1(=O)C=C(c2ccccc2)C(c2ccccc2)=C1
T/C (dose: 3.12 mg/kg/injection, schedule: Q01DX009 (ip), vehicle: saline with Tween-80): 92 % of control and 98 % of control | T/C [1]: 95 % of control | T/C [2]: 113 % of control and 94 % of control | T/C (dose: 25.0 mg/kg/injection, schedule: Q01DX009 (ip), vehicle: saline with Tween-80): 106 % of control | T/C [11]: 119 % of control

O=C(O)CC(NC(=O)CP(=O)(O)O)C(=O)O (centres undefined)
T/C [10]: 160 % of control | T/C (dose: 37.5 mg/kg/injection, schedule: Q01DX005 (ip), vehicle: saline): 121 % of control | T/C (dose: 37.5 mg/kg/injection, schedule: Q01DX005 (iv), vehicle: saline): 119 % of control | T/C [4]: 172 % of control | T/C (dose: 75.0 mg/kg/injection, schedule: Q01DX001 (ip), vehicle: saline): 120 % of control | T/C (dose: 75.0 mg/kg/injection, schedule: Q01DX001 (iv), vehicle: saline): 110 % of control | T/C (dose: 75.0 mg/kg/injection, schedule: Q01DX005 (iv), vehicle: saline): 123 % of control | T/C [5]: 202 % of control | T/C (dose: 150.0 mg/kg/injection, schedule: Q01DX001 (iv), vehicle: saline): 116 % of control | T/C (dose: 150.0 mg/kg/injection, schedule: Q01DX005 (ip), vehicle: saline): 178 % of control | T/C (dose: 150.0 mg/kg/injection, schedule: Q01DX005 (iv), vehicle: saline): 114 % of control | T/C (dose: 200.0 mg/kg/injection, schedule: Q01DX009 (ip), vehicle: saline): 226 % of control | T/C (dose: 300.0 mg/kg/injection, schedule: Q01DX001 (iv), vehicle: saline): 115 % of control | T/C (dose: 300.0 mg/kg/injection, schedule: Q01DX005 (ip), vehicle: saline): 163 % of control

O=NNc1cccnc1
T/C (dose: 6.25 mg/kg/injection, schedule: Q01DX009 (ip), vehicle: water): 107 % of control | T/C (dose: 12.5 mg/kg/injection, schedule: Q01DX009 (ip), vehicle: water): 121 % of control | T/C (dose: 25.0 mg/kg/injection, schedule: Q01DX009 (ip), vehicle: water): 111 % of control | T/C (dose: 50.0 mg/kg/injection, schedule: Q01DX009 (ip), vehicle: water): 100 % of control | T/C (dose: 100.0 mg/kg/injection, schedule: Q01DX009 (ip), vehicle: water): 107 % of control

CC(C)(C)OC(=O)NCC(=O)ON1C(=O)CCC1=O
T/C [11]: 100 % of control | T/C (dose: 100.0 mg/kg/injection, schedule: Q01DX009 (ip), vehicle: saline with Tween-80): 91 % of control

CCCC[C@H]1C(=O)O[C@H](C)[C@H](NC(=O)c2cccc(NC=O)c2O)C(=O)O[C@@H](C)[C@@H]1OC(=O)CC(C)C
T/C (dose: 0.12 mg/kg/injection, schedule: Q01DX009 (ip), vehicle: Klucel (hydroxypropylcellulose) (HPC)): 96 % of control | T/C (dose: 0.25 mg/kg/injection, schedule: Q01DX009 (ip), vehicle: Klucel (hydroxypropylcellulose) (HPC)): 96 % of control | T/C (dose: 0.5 mg/kg/injection, schedule: Q01DX009 (ip), vehicle: Klucel (hydroxypropylcellulose) (HPC)): 91 % of control and 98 % of control

O=C(O)CSc1c(Cl)c(=O)oc2ccc(Cl)cc12
T/C [6]: 97 % of control | T/C [7]: 95 % of control | T/C [8]: 101 % of control | T/C [9]: 107 % of control | T/C [3]: 116 % of control
